Common to all, as to format: in vivo
Experiment [1] concerns Pigweed, Palmer (palmer amaranth, palmer pigweed, Amaranthus palmeri). Description: Test A1 postemergence, Pigweed, Palmer. Particulars: Postemergence. An outline of the steps: (§1)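 Pre: seeds in loam/sand blend, directed soil spray. Post: potted plants, same soil, 2–10 cm, 1–2 leaf stage. Chemicals in non-phytotoxic solvent + surfactant for both.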
A further experiment deals with corn (Zea mays). Description: Test A1 preemergence, corn. The method in brief: as §1
For experiment [2], the system named is galium (catchweed bedstraw, Galium aparine). Put plainly: Test A1 postemergence, galium. Particulars: Postemergence. The method in brief: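 Both timings started from seed in a loam-sand blend. Preemergence pots got a directed soil application immediately; postemergence pots were sprayed when seedlings had one or two leaves and stood 2–10 cm. Each compound was prepared in a non-phytotoxic solvent plus surfactant.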

The test system of experiment [3] is ragweed (common ragweed, Ambrosia artemisiifolia). Description: Test A1 postemergence, ragweed. Particulars: Postemergence. The method in brief: as §1
Experiment [4] concerns Pigweed, Palmer (palmer amaranth, palmer pigweed, Amaranthus palmeri). Put plainly: Test A1 preemergence, Pigweed, Palmer. An outline of the steps: as §1
In experiment [5] the test system is blackgrass (Alopecurus myosuroides). Put plainly: Test A1 preemergence, blackgrass. An outline of the steps: as §1
For experiment [6], the system named is ragweed (common ragweed, Ambrosia artemisiifolia). Put plainly: Test A1 preemergence, ragweed. An outline of the steps:
as §1

The subject of experiment [7] is goosegrass (Eleusine indica). Put plainly: Test A1 preemergence, goosegrass. The method in brief:
as §1

In experiment [8] the test system is ducksalad (Heteranthera limosa). Description: Test B1 flooded paddy test, ducksalad. To be noted: 250 g ai/ha, Flood, applied to paddy water, 2-leaf stage, visually evaluated after 10 to 14 days. The source says: A dash (-) response means no test result.
The mark [9] stands for this setting: 31 g ai/ha, 0 to 100 scale (0 no effect, 100 complete control), 10 days.
Where [10] appears, read: 31 g ai/ha, 0 to 100 scale (0 no effect, 100 complete control).
Where [11] appears, read: 125 g ai/ha, 0 to 100 scale, 0 no effect, 100 complete control.

Data on four molecules can be found in patent publication US20230278972A1, “SUBSTITUTED HALOALKYL SULFONANILIDE HERBICIDES” (FMC Corporation, priority 2020, published 2023).

Each structure is given as a SMILES string.

On to `Cc1cc(C)c(N(COC(=O)C(C)(C)C)S(=O)(=O)C(F)(F)F)cc1C1=NOC2CCCCCC12` (single isomer, unassigned) [Compound 294], for which the “Plant response rating, Pigweed, Palmer” value in experiment [1] (setting [9]) is on record as 10; in experiment [1] (125 g ai/ha, 0 to 100 scale) it was 30; in experiment [4] (setting [10]), 10; in [4] (setting [11]), 30. Also, the “Plant response rating, Corn” value in the experiment on corn (Zea mays) (setting [10]) and with corn (Zea mays) (setting [11]) was 0 throughout. The “Plant response rating, Galium” value is recorded as 60 in experiment [2] (setting [9]) and 70 in [2] (125 g ai/ha, 0 to 100 scale). In addition, the “Plant response rating, Ragweed” value in experiment [3] (setting [9]) is recorded as 30; in experiment [3] (125 g ai/ha, 0 to 100 scale), 80; in experiment [6] (setting [10]), 0; in [6] (setting [11]), 30. The “Plant response rating, Blackgrass” value in [5] (setting [10]) was 10; in [5] (setting [11]), 0. For the same molecule, the “Plant response rating, Goosegrass” value in experiment [7] (setting [10]) came to 0; in experiment [7] (setting [11]) it was 90. Further, the “Plant response rating, Ducksalad (0 to 100 scale, 0 is no effect, 100 is complete control)” value in [8] was 70.
As for `Cc1cc(C)c(-n2nccc(C)c2=O)cc1NS(=O)(=O)C(F)(F)F` [Compound 281], the “Plant response rating, Pigweed, Palmer” value is recorded as 0 in experiment [1] (setting [9]); 40 in experiment [1] (125 g ai/ha, 0 to 100 scale); 0 in experiment [4] (setting [10]); 40 in experiment [4] (setting [11]). Besides, the “Plant response rating, Corn” value in the experiment on corn (Zea mays) (setting [10]) and with corn (Zea mays) (setting [11]) was 0 in each case. Also, the “Plant response rating, Galium” value came to 0 in [2] (setting [9]) and 0 in experiment [2] (125 g ai/ha, 0 to 100 scale). The “Plant response rating, Ragweed” value in experiment [3] (setting [9]) turned out to be 0; in experiment [3] (125 g ai/ha, 0 to 100 scale), 70; in experiment [6] (setting [10]) it was 0; in experiment [6] (setting [11]), 0. Also, the “Plant response rating, Blackgrass” value in experiment [5] (setting [10]) and in [5] (setting [11]) was 0 throughout. The entries for the “Plant response rating, Goosegrass” value in experiment [7] (setting [10]) and in [7] (setting [11]) were 10 and 90, respectively. Further, in experiment [8], the “Plant response rating, Ducksalad (0 to 100 scale, 0 is no effect, 100 is complete control)” value is given as 0.
On to `Cc1c(NS(=O)(=O)C(F)(F)F)cc(C(=O)N(C)C)c(C)c1Cl` [Compound 287], for which the “Plant response rating, Pigweed, Palmer” value in experiment [1] (setting [9]) was 0; in experiment [1] (125 g ai/ha, 0 to 100 scale), 40; in experiment [4] (setting [10]), 0; in experiment [4] (setting [11]) it was 90. The “Plant response rating, Corn” value in the experiment on corn (Zea mays) (setting [10]) and in the experiment with corn (Zea mays) (setting [11]) was 0 throughout. For the same molecule, the “Plant response rating, Galium” value in [2] (setting [9]) was 0; in experiment [2] (125 g ai/ha, 0 to 100 scale), 0. Also, the “Plant response rating, Ragweed” value in experiment [3] (setting [9]) was determined as 60; in experiment [3] (125 g ai/ha, 0 to 100 scale), 70; in experiment [6] (setting [10]) it was 0; in [6] (setting [11]), 80. The “Plant response rating, Blackgrass” value came out at 0 in experiment [5] (setting [10]) and 30 in experiment [5] (setting [11]). Also, the “Plant response rating, Goosegrass” value in [7] (setting [10]) came out at 70; in [7] (setting [11]), 90. In addition, the “Plant response rating, Ducksalad (0 to 100 scale, 0 is no effect, 100 is complete control)” value in experiment [8] was found to be 75.
Consider `Cc1c(NS(=O)(=O)C(F)(F)F)cc(C(=O)N(C)C)c(C)c1C` [Compound 288], for which the “Plant response rating, Pigweed, Palmer” value stood at 0 in experiment [1] (setting [9]); 30 in [1] (125 g ai/ha, 0 to 100 scale); 50 in experiment [4] (setting [10]); 70 in experiment [4] (setting [11]). Further, the “Plant response rating, Corn” value with corn (Zea mays) (setting [10]) and in the experiment with corn (Zea mays) (setting [11]) was 0 throughout. The “Plant response rating, Galium” value turned out to be 0 in [2] (setting [9]) and 0 in experiment [2] (125 g ai/ha, 0 to 100 scale). Also, the “Plant response rating, Ragweed” value in [3] (setting [9]) was determined as 30; in [3] (125 g ai/ha, 0 to 100 scale) it was 80; in experiment [6] (setting [10]), 0; in experiment [6] (setting [11]), 40. Besides, the “Plant response rating, Blackgrass” value in experiment [5] (setting [10]) and in [5] (setting [11]) was 0 throughout. The “Plant response rating, Goosegrass” value in experiment [7] (setting [10]) is 30; in [7] (setting [11]), 90. Further, the “Plant response rating, Ducksalad (0 to 100 scale, 0 is no effect, 100 is complete control)” value in [8] stood at 60.
